“And” between values parts separate entries of the source, which are not always exact repeats. Equal values may be shown once. Blank lines part the entries; values can stand above or below the molecule they belong to.
Key:
[1] = volume of encapsulation in liposomes; assay type: physicochemical; conditions: freeze-thawed multilamellar EPC/PS/cholesterol liposomes; 8 mM solute
Method: 2ʹ,3ʹ-dideoxyguanosine 5ʹ-triphosphate (ddGTP), 2ʹ,3ʹ-dideoxyadenosine 5ʹ-triphosphate (ddATP), 2ʹ,3ʹ-dideoxythymidine 5ʹ-triphosphate (ddTTP), 2ʹ,3ʹ-dideoxycytidine 5ʹ-diphosphate (ddCDP), and 2ʹ,3ʹ-dideoxy cytidine 5ʹ-monophosphate (ddCMP) were obtained from Pharmacia (Piscataway, N.J., USA). Liposomes containing each of these agents were prepared using 56 mg EPC, 29 mg PS, 33 mg cholesterol, and 0.125 micro Ci ¹⁴C-cholesteryl oleate. Solutions for encapsulation were 8 mM nucleoside or nucleotide in phosphate-buffered saline pH 7. Liposomes were prepared essentially as described in Example 2, by drying lipid onto the walls of a glass vial, hydrating the lipid with a portion of the solution to be encapsulated, vortex-mixing, and freeze-thawing 5 times with liquid nitrogen. However, the lipid was hydrated in 0.8 ml, rather than 1.0 ml, and the extrusion step was eliminated. […] The preparation was washed by centrifugation 3 times to remove unencapsulated solute. The volume encapsulated was determined by extraction, using equal volumes of chloroform:methanol (65:25) and phosphate buffered saline. The nucleoside and nucleotide solutes partitioned largely into the aqueous phase, whereas lipid was found in the organic phase and near the interface after centrifugation. The amount of solute encapsulated was determined by standard ultraviolet spectroscopy, and the lipid was measured by counting the ¹⁴C label in scintillation fluid.

[2] = solute release from liposomes at 4°C; assay type: physicochemical; conditions: from liposomes at 4°C in 2 days
Method: Rates of solute release were determined by adding 145 microliters of phosphate buffered saline to 25 microliters of liposomes and centrifuging in an Airfuge (Beckman) at approximately 100,000G for 10 minutes. The liposome pellets were then counted for ¹⁴C lipid, and 100 microliters of each supernatant was diluted 5-fold with phosphate buffered saline for ultraviolet spectroscopy. […] In each case, the triphosphates are released less, and the less phosphorylated forms are released to a greater extent.

monocytes = assay: superoxide generation by monocytes; assay type: cell-based, Human; conditions: PMA treatment (positive control), one value per test series
Method: Human peripheral blood mononuclear cells were obtained by standard procedures employing continuous flow cell separation (leukapheresis), such as described in Wahl, et al., Cellular Immunol. 85:373-383 (1984). The preparation was diluted in phosphate-buffered saline and layered onto gradients of Ficoll-Paque (Pharmacia-PL Biochemicals, Piscataway, N.J., USA). After centrifugation, mononuclear cells were pipetted from the interface, washed, and suspended in DMEM-GG-FCS. They were then fractionated by countercurrent centrifugal elutriation. The procedure comprises the Beckman elutriation system including a J-21 Beckman Centrifuge, a JE-6 elutriator rotor, a stroboscope, and a Masterflex pump and pumphead. The cells were loaded into the rotor and fractionated by elution at increasing flow rates. Fractions 7 and 8, highly enriched for monocytes, were pooled for use.

adherent human monocytes = assay: uptake of dideoxynucleotides; assay type: cell-based; conditions: 37°C, drug 1 uM
Method: Uptake of ₃H-deoxyctidine triphosphate (³H-dCTP) was used as an indicator of the uptake of vesicle contents by cells. Uptake experiments were done by plating 5 × 10⁶ monocytes in each well of a 6-well microtiter plate (Costar) and adding reagents one or two days later. Incubations were done in DMEM-GG-FCS at 37°C. The rate of increase of dCTP content in the cells over a 9-hour period (Table 7) averaged 0.29 pmole/million cells/hr with liposomes containing 4 mM EPC. Other experiments established that ddCTP and ddCMP are not readily taken up by the cells (Table 9).

in vitro = in vitro ADME; conditions: dmem-gg-fcs
Method: When the same incubations were done in the absence of monocytes, the results were essentially identical.
Studies were conducted under conditions mimicking those of anti-viral tests. ddCMP: dideoxycytidine monophosphate. Data points represent integrals under HPLC peaks from gradient elution on a VYDAC nucleotide column.

Volume of Encapsulation [1]: 1.30 microliters/micromole EPC
Percent Release [2]: 0.9%
SMILES: Nc1ncnc2c1ncn2[C@H]1CC[C@@H](COP(=O)(O)OP(=O)(O)OP(=O)(O)O)O1 [ddATP, 2ʹ,3ʹ-dideoxyadenosine 5ʹ-triphosphate]

pmole drug/1 million cells (mean) (adherent human monocytes; 0. h): 0.07 pmole drug/1 million cells
pmole drug/1 million cells (mean) (adherent human monocytes; 0.33 h): 0.18 pmole drug/1 million cells
pmole drug/1 million cells (mean) (adherent human monocytes; 1.00 h): 0.22 pmole drug/1 million cells
pmole drug/1 million cells (mean) (adherent human monocytes; 3.00 h): 0.08 pmole drug/1 million cells
pmole drug/1 million cells (mean) (adherent human monocytes; 6.00 h): 0.20 pmole drug/1 million cells
metabolised at 72 h (in vitro): 93%
Volume of Encapsulation [1]: 0.76 microliters/micromole EPC
Percent Release [2]: 6.9%
SMILES: Nc1ccn([C@H]2CC[C@@H](COP(=O)(O)O)O2)c(=O)n1 [ddCMP, 2ʹ,3ʹ-dideoxycytidine 5ʹ-monophosphate]

Volume of Encapsulation [1]: 2.74 microliters/micromole EPC
Percent Release [2]: 0.3%
SMILES: Nc1nc2c(ncn2[C@H]2CC[C@@H](COP(=O)(O)OP(=O)(O)OP(=O)(O)O)O2)c(=O)[nH]1 [ddGTP, 2ʹ,3ʹ-dideoxyguanosine 5ʹ-triphosphate]

Volume of Encapsulation [1]: 1.26 microliters/micromole EPC
Percent Release [2]: 6.2%
SMILES: Nc1ccn([C@H]2CC[C@@H](COP(=O)(O)OP(=O)(O)O)O2)c(=O)n1 [ddCDP, 2ʹ,3ʹ-dideoxycytidine 5ʹ-diphosphate]

Continued, molecule first:

SMILES: Cc1cn([C@H]2CC[C@@H](COP(=O)(O)OP(=O)(O)OP(=O)(O)O)O2)c(=O)[nH]c1=O [ddTTP, 2ʹ,3ʹ-dideoxythymidine 5ʹ-triphosphate]
Volume of Encapsulation [1]: 1.61 microliters/micromole EPC
Percent Release [2]: 0.04%

SMILES: CCCCCCCCCCCCCC(=O)O[C@@H]1[C@@H](C)[C@@]2(O)[C@@H](C=C(CO)C[C@]3(O)C(=O)C(C)=C[C@@H]23)[C@@H]2C(C)(C)[C@]12OC(C)=O [PMA, phorbol myristyl acetate, reference compound]
Superoxide (monocytes): 3.23 (.09) nmoles/well and 3.30 (.12) nmoles/well and 3.26 (.05) nmoles/well and 3.46 (.12) nmoles/well

SMILES: Cc1cn([C@H]2CC[C@@H](CO)O2)c(=O)[nH]c1=O [ddT, dideoxythymidine, reference compound]
Volume of Encapsulation [1]: 1.29 microliters/micromole EPC
Percent Release [2]: 45.1%

SMILES: Nc1ccn([C@H]2CC[C@@H](CO)O2)c(=O)n1 [ddC, dideoxycytidine, reference compound]
pmole drug/1 million cells (mean) (adherent human monocytes; 0. h): 0.05 pmole drug/1 million cells
pmole drug/1 million cells (mean) (adherent human monocytes; 0.33 h): 0.01 pmole drug/1 million cells
pmole drug/1 million cells (mean) (adherent human monocytes; 1.00 h): 0.19 pmole drug/1 million cells
pmole drug/1 million cells (mean) (adherent human monocytes; 3.00 h): 0.43 pmole drug/1 million cells
pmole drug/1 million cells (mean) (adherent human monocytes; 6.00 h): 1.30 pmole drug/1 million cells
pmole drug/1 million cells (mean) (adherent human monocytes; 9.00 h): 1.90 pmole drug/1 million cells
pmole drug/1 million cells (mean) (adherent human monocytes; 20.00 h): 0.81 pmole drug/1 million cells

— patent publication EP0286418A1, “Anti-retroviral agents and delivery systems for the same” (priority 1987, dated 1988)
